Consider 15 compounds from US20240109873A1, “ANTAGONISTS OF THE MUSCARINIC ACETYLCHOLINE RECEPTOR M4” (Vanderbilt University, priority 2020, published 2024).

This assay has as its target T1, human mAChR M4 (Homo sapiens, UniProt P08173).
T1 construct: expressed in transfected cells; host or cells: CHO-K1 (ATCC), co-transfected with chimeric G protein Gqi5
T1 sequence (P08173 1-479): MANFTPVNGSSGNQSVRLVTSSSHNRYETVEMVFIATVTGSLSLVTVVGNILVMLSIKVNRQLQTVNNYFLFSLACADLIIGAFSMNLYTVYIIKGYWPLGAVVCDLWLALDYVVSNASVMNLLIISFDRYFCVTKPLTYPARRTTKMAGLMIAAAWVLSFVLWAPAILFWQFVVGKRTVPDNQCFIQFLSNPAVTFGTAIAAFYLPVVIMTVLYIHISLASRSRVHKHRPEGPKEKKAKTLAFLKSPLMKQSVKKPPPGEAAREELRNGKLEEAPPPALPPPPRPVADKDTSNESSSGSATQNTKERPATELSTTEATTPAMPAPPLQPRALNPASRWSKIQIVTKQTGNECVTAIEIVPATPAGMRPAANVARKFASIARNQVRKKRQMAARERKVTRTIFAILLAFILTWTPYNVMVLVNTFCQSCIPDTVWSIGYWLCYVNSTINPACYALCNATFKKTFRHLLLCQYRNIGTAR
In words: mAChR M4 cell-based functional assay (calcium flux, antagonism of EC80 acetylcholine response, M4/Gqi5/CHO-K1 cells). The following applies: for remaining activity at 30 µM: CHO-K1, % ACh maximum at 30 μM, read-out: Human M4 Emin; for IC50: decrease of the response elicited by an EC80 concentration of acetylcholine, CHO-K1 cells, Gqi5; for Human M4 Emin: % ACh maximum at 30 μM. On the procedure:
Human or rat M4 cDNA, along with the chimeric G protein Gqi5, were transfected into Chinese hamster ovary (CHO-K1) cells purchased from the American Type Culture Collection using Lipofectamine2000. M4/Gqi5/CHO cells were grown in Ham's F-12 medium containing 10% heat-inactivated fetal bovine serum (FBS), 20 mM HEPES, 500 μg/mL G418 sulfate, and 200 μg/mL Hygromycin B.
For high throughput measurement of agonist-evoked increases in intracellular calcium, CHO-K1 cells stably expressing muscarinic receptors were plated in growth medium lacking G418 and hygromycin at 15,000 cells/20 μL/well in Greiner 384-well black-walled, tissue culture (TC)-treated, clear-bottom plates (VWR). Cells were incubated overnight at 37° C. and 5% CO2. The next day, cells were washed using an ELX 405 (BioTek) with assay buffer; the final volume was then aspirated to 20 μL. Next, 20 μL of a 2.3 μM stock of Fluo-4/acetoxymethyl ester (Invitrogen, Carlsbad, CA), prepared as a 2.3 mM stock in DMSO and mixed in a 1:1 ratio with 10% (w/v) Pluronic F-127 and diluted in assay buffer, was added to the wells and the cell plates were incubated for 50 min at 37° C. and 5% CO2. Dye was removed by washing with the ELX 405 and the final volume was aspirated to 20 μL. Compound master plates were formatted in a 10-point concentration-response curve (CRC) format (1:3 dilutions) in 100% DMSO with a starting concentration of 10 or 1 mM using a BRAVO liquid handler (Agilent). Test compound CRCs were then transferred to daughter plates (240 nL) using the Echo acoustic plate reformatter (Labcyte, Sunnyvale, CA) and then diluted into assay buffer (40 μL) to a 2× stock using a Thermo Fisher Combi (Thermo Fisher Scientific, Waltham, MA).
Calcium flux was measured using the Functional Drug Screening System (FDSS) 6000 or 7000 (Hamamatsu Corporation, Tokyo, Japan) as an increase in the fluorescent static ratio. Compounds were applied to cells (20 μL, 2×) using the automated system of the FDSS at 2 seconds into the protocol and the data were collected at 1 Hz. At 143 s, 10 μL of an EC20 concentration of the muscarinic receptor agonist acetylcholine was added (5×), followed by the addition of 12 μL of an EC80 concentration of acetylcholine at the 268 s time point (5×). Agonist activity was analyzed as a concentration-dependent increase in calcium mobilization upon compound addition. Positive allosteric modulator activity was analyzed as a concentration-dependent increase in the EC20 acetylcholine response. Antagonist activity was analyzed as a concentration-dependent decrease in the EC80 acetylcholine response; for the purposes of the tables herein, an IC50 (inhibitory concentration 50) was calculated as a concentration-dependent decrease of the response elicited by an EC80 concentration of acetylcholine. Concentration-response curves were generated using a four-parameter logistical equation in XLFit curve fitting software (IDBS, Bridgewater, NJ) for Excel (Microsoft, Redmond, WA) or Prism (GraphPad Software, Inc., San Diego, CA) or the Dotmatics software platform (Dotmatics, Bishop's Stortford, UK). […]
Compounds were synthesized as described above. Activity (IC50 and Emin) was determined in the mAChR M4 cell-based functional assay as described above and the data are shown in Table 2.
Background: A change in cytosolic calcium serves as a functional read-out for many receptors and channels.

As a reminder, the IC50 is the midpoint of a concentration-inhibition curve. As to `[2H]C([2H])(C1CCOCC1)N1C[C@H]2C[C@H](Nc3ccc(-c4cccnc4C(F)F)nn3)C[C@H]2C1` [Compound 38, (3aR,5s,6aS)-N-(6-(2-(difluoromethyl)pyridin-3-yl)pyridazin-3-yl)-2-((tetrahydro-2H-pyran-4-yl)methyl-d2)octahydrocyclopenta[c]pyrrol-5-amine], the remaining activity at 30 µM worked out at 5% and the 50% inhibitory concentration (IC50) was 0.48 nM.
The like results for `[2H]C([2H])([C@H]1COCCO1)N1C[C@H]2C[C@H](Nc3ccc(-c4cccnc4C(F)(F)F)nn3)C[C@H]2C1` [Compound 51, (3aR,5s,6aS)-2-(((S)-1,4-dioxan-2-yl)methyl-d2)-N-(6-(2-(trifluoromethyl)pyridin-3-yl)pyridazin-3-yl)octahydrocyclopenta[c]pyrrol-5-amine] were, in that order, 2% and 1.4 nM.
Consider `[2H]C([2H])(C1CCOCC1)N1C[C@H]2C[C@H](Nc3ccc(-c4cccnc4C(F)(F)F)nc3)C[C@H]2C1` [Compound 41, (3aR,5s,6aS)-2-((tetrahydro-2H-pyran-4-yl)methyl-d2)-N-(2′-(trifluoromethyl)-[2,3′-bipyridin]-5-yl)octahydrocyclopenta[c]pyrrol-5-amine], for which the remaining activity at 30 µM came to 2% and the IC50 was 8.7 nM.
In the same order, the values of `[2H]C([2H])([C@@H]1CCCOC1)N1C[C@H]2C[C@H](Nc3ccc(-c4cnccc4C(F)(F)F)nn3)C[C@H]2C1` [Compound 24, (3aR,5s,6aS)-2-(((S)-tetrahydro-2H-pyran-3-yl)methyl-d2)-N-(6-(4-(trifluoromethyl)pyridin-3-yl)pyridazin-3-yl)octahydrocyclopenta[c]pyrrol-5-amine] are 3% and 5.5 nM.
The like results for `[2H]C1([2H])CC(C([2H])([2H])N2C[C@H]3C[C@H](Nc4nnc(-c5cnccc5C(F)(F)F)cc4C)C[C@H]3C2)CC([2H])([2H])O1` [Compound 18, (3aR,5s,6aS)-N-(4-methyl-6-(4-(trifluoromethyl)pyridin-3-yl)pyridazin-3-yl)-2-((tetrahydro-2H-pyran-4-yl-2,2,6,6-d4)methyl-d2)octahydrocyclopenta[c]pyrrol-5-amine] were, in that order, 4% and 1.1 nM.
The like results for `[2H]C([2H])(C1CCOCC1)N1C[C@@H]2C[C@@H](Nc3ccc(-c4cccnc4C(F)(F)F)nn3)C[C@]2(C)C1` (racemic) [Compound 56, (3aR,5S,6aS)-3a-methyl-2-((tetrahydro-2H-pyran-4-yl)methyl-d2)-N-(6-(2-(trifluoromethyl)pyridin-3-yl)pyridazin-3-yl)octahydrocyclopenta[c]pyrrol-5-amine and (3aS,5R,6aR)-3a-methyl-2-((tetrahydro-2H-pyran-4-yl)methyl-d2)-N-(6-(2-(trifluoromethyl)pyridin-3-yl)pyridazin-3-yl)octahydrocyclopenta[c]pyrrol-5-amine] were, in that order, 2% and 1.9 nM.
Turning to `[2H]C([2H])(C1CCOCC1)N1C[C@H]2C[C@H](Nc3ccc(-c4cnc(C(F)(F)F)cc4C(F)(F)F)nn3)C[C@H]2C1` [Compound 17, (3aR,5s,6aS)-N-(6-(4,6-bis(trifluoromethyl)pyridin-3-yl)pyridazin-3-yl)-2-((tetrahydro-2H-pyran-4-yl)methyl-d2)octahydrocyclopenta[c]pyrrol-5-amine], the remaining activity at 30 µM worked out at 26% and the IC50 turned out to be 2.8 nM.
In the same order, the values of `[2H]C([2H])([C@H]1COCCO1)N1C[C@H]2C[C@H](Nc3ccc(-c4cnccc4C(F)(F)F)nn3)C[C@H]2C1` [Compound 5, (3aR,5s,6aS)-2-(((S)-1,4-dioxan-2-yl)methyl-d2)-N-(6-(4-(trifluoromethyl)pyridin-3-yl)pyridazin-3-yl)octahydrocyclopenta[c]pyrrol-5-amine] are 2% and 0.91 nM.
In the same order, the values of `[2H]C([2H])(C1CCOCC1)N1C[C@H]2C[C@H](Nc3ccc(-c4cccnc4C(F)(F)F)nn3)C[C@H]2C1` [Compound 39, (3aR,5s,6aS)-2-((tetrahydro-2H-pyran-4-yl)methyl-d2)-N-(6-(2-(trifluoromethyl)pyridin-3-yl)pyridazin-3-yl)octahydrocyclopenta[c]pyrrol-5-amine] are 23% and 0.8 nM.
Consider `[2H]C([2H])(C1CCOC(C)(C)C1)N1C[C@H]2C[C@H](Nc3ccc(-c4cnccc4C(F)(F)F)nn3)C[C@H]2C1` (single isomer, unassigned) [Compound 58], for which the “Human M4 Emin” value is on record as 3% and the concentration for half-maximal inhibition (IC50) turned out to be 9.4 nM.
As for `[2H]C([2H])(C1CCOCC1)N1C[C@H]2C[C@H](Nc3ccc(-c4cnccc4C(F)(F)F)nn3)C[C@H]2C1` [Compound 2, (3aR,5s,6aS)-2-((tetrahydro-2H-pyran-4-yl)methyl-d2)-N-(6-(4-(trifluoromethyl)pyridin-3-yl)pyridazin-3-yl)octahydrocyclopenta[c]pyrrol-5-amine], the remaining activity at 30 µM was 3% and the IC50 worked out at 0.41 nM.
The like results for `[2H]C([2H])(C1CCOCC1(C)C)N1C[C@H]2C[C@H](Nc3ccc(-c4cnccc4C(F)(F)F)nn3)C[C@H]2C1` (stereo partly drawn) [Compound 3, (3aR,5s,6aS)-2-((3,3-dimethyltetrahydro-2H-pyran-4-yl)methyl-d2)-N-(6-(4-(trifluoromethyl)pyridin-3-yl)pyridazin-3-yl)octahydrocyclopenta[c]pyrrol-5-amine] were, in that order, 2% and 4.6 nM.
In the same order, the values of `[2H]C([2H])([C@@H]1CCCCO1)N1C[C@H]2C[C@H](Nc3ccc(-c4cnccc4C(F)(F)F)nn3)C[C@H]2C1` [Compound 8, (3aR,5s,6aS)-2-(((S)-tetrahydro-2H-pyran-2-yl)methyl-d2)-N-(6-(4-(trifluoromethyl)pyridin-3-yl)pyridazin-3-yl)octahydrocyclopenta[c]pyrrol-5-amine] are 3% and 0.086 nM.
`[2H]C([2H])(C1CCOC(C)(C)C1)N1C[C@H]2C[C@H](Nc3ccc(-c4cnccc4C(F)(F)F)nn3)C[C@H]2C1` (single isomer, unassigned) [Compound 59]: the “Human M4 Emin” value came to 3% and the IC50 came to 1 nM.
Regarding `[2H]C([2H])(C1CCOCC1)N1C[C@H]2C[C@H](Nc3nnc(-c4cnccc4C(F)(F)F)cc3C)C[C@H]2C1` [Compound 16, (3aR,5s,6aS)-N-(4-methyl-6-(4-(trifluoromethyl)pyridin-3-yl)pyridazin-3-yl)-2-((tetrahydro-2H-pyran-4-yl)methyl-d2)octahydrocyclopenta[c]pyrrol-5-amine], the remaining activity at 30 µM was found to be 4% and the IC50 was 1.5 nM.
